Key:
[1] = tested on: pulmonary eosinophil infiltration; test: Inhibition of late-phase eosinophilia 24 h after inhalational ovalbumin challenge in actively sensitized guinea-pigs; type: in vivo; conditions: BAL 24 h after OVA challenge
Procedure: The inhibition of pulmonary eosinophil infiltration by the substances is tested in an in-vivo test on male Dunkin-Hartley guinea-pigs (200-250 g) sensitized against ovalbumin (OVA). The sensitization is carried out by means of two intraperitoneal injections of a suspension of 20 μg of OVA together with 20 mg of aluminium hydroxide as an adjuvant in 0.5 ml of physiological saline solution per animal on two successive days. 14 days after the second injection, the animals are pretreated with mepyramine maleate (10 mg/kg i.p.) in order to protect them from anaphylactic death. 30 minutes later, the animals are exposed for 30 sec in a plastic box to an OVA aerosol (0.5 mg/ml) which is generated by a nebulizer driven by compressed air (19.6 kPa) (allergen challenge). Control animals are nebulized with physiological saline solution. 24 hours after the challenge, the animals are anaesthetized with an overdose of ethylurethane (1.5 g/kg of body weight i.p.) and a bronchoalveolar lavage (BAL) is carried out with 2×5 ml of physiological saline solution. The BAL fluid is collected, centrifuged at 300 rpm for 10 min and the cell pellet is then resuspended in 1 ml of physiological saline solution. The eosinophils are stained using the Becton-Dickinson test kit (N. 5877) for eosinophils and counted in a Neubauer chamber. 2 control groups (nebulization with physiological saline solution and nebulization with OVA solution) are additionally included in each test.
The percentage inhibition of the eosinophilia of the test group treated with substance is calculated according to the following formula:
(A-C)-(B-C)/(A-C)×100=% inhibition
The test substances are administered intraperitoneally or orally as a suspension in 10% polyethylene glycol 300 and 0.5% strength 5-hydroxyethylcellulose 2 hours before allergen challenge. The control groups are treated with the vehicle according to the administration form of the test substance. The number of animals per control and test group is 3-10.

[2] = target: human cyclophilin B (Homo sapiens, UniProt P23284); test: Peptidylprolyl isomerase (PPIase) activity inhibition assay; type: biochemical; conditions: Cyp B, test peptide Suc-Ala-Ala-Pro-Phe-Nan
Sequence of human cyclophilin B (P23284 34-216): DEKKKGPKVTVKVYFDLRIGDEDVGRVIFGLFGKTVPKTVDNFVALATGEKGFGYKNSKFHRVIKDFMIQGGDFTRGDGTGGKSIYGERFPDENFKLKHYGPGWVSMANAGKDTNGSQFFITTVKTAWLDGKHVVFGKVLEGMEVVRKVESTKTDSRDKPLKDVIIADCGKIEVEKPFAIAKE
Procedure: To determine the anti-asthmatic, anti-allergic, anti-inflammatory and/or immunomodulating properties of the compounds according to the invention, in-vitro and in-vivo investigations were carried out. […] For the initial screening (10 μmol/l), the inhibition of human cyclophilin B in the PPIase test is determined.
The PPIase activity is tested according to a globally customary enzyme test: G. Fischer, H. Bang, C. Mech, Biomed. Biochim. Acta 43 1101-1111; G. Fischer, H. Bang, A. Schellenberger, Biochim. Biophys. Acta 791 (1984), 87-97; D. H. Rich et al., J. Med. Chem. 38 (1995), 4164-4170.
The compounds of the general formula I according to the invention are preincubated at 4° C. for 15 minutes together with 10 nmol of Cyp B. The enzyme reaction is started using the test peptide Suc-Ala-Ala-Pro-Phe-Nan after addition of chymotrypsin and HEPES buffer. The extinction change at 390 nm is then monitored and evaluated. The photometrically determined extinction change results from two sub-reactions: a) the rapid chymotryptic cleavage of the trans-peptide; b) the non-enzymatic cis-trans isomerization, which is catalysed by cyclophilins.

inhibition at 10 µM [2] | SMILES | Eosinophil million/animal x ± s, B = group treated with substance with OVA challenge ([1]; 10 mg/kg i.p. -2 h) | Inhibition [%] of eosinophilia ([1]; 10 mg/kg i.p. -2 h) | Eosinophil million/animal x ± s, B = group treated with substance with OVA challenge ([1]; 30 mg/kg p.o. -2 h) | Inhibition [%] of eosinophilia ([1]; 30 mg/kg p.o. -2 h)
95% | COc1ccc2c(c1)c(OCCOc1c(F)cc(F)cc1Br)nn2S(=O)(=O)c1ccc(C)cc1 [Example 1, 3-[2-(2-Bromo-4,6-difluorophenoxy)ethoxy]-5-methoxy-1-(toluene-4-sulphonyl)-1H-indazole] | 1.23 ± 0.38 million/animal | 61% | 1.75 ± 1.86 million/animal | 65%
70% | COc1ccc2c(c1)c(OCCOc1ccc(Cl)cc1)nn2S(=O)(=O)c1ccc(Cl)cc1 [Example 7] |  |  |  | 
 | COc1ccc2c(c1)c(OCCOc1ccc(Cl)cc1)nn2S(=O)(=O)c1ccc(F)cc1 [Example 8] | 1.84 ± 0.94 million/animal | 41% |  | 
90% | COc1ccc(S(=O)(=O)n2nc(OCCOc3ccc(Cl)cc3)c3cc(OC)ccc32)cc1 [Example 9] |  |  |  | 
70% | COc1ccc2c(c1)c(OCc1noc(-c3cccc(C(F)(F)F)c3)n1)nn2S(=O)(=O)c1ccc(C)cc1 [Example 32, 5-Methoxy-1-(toluene-4-sulphonyl)-3-[5-(3-trifluoromethylphenyl)-1,2,4-oxadiazol-3-ylmethoxy]-1H-indazole] | 0.86 ± 0.49 million/animal | 85% |  | 
71% | COc1ccc2c(c1)c(OCc1ccc(Cl)cc1[N+](=O)[O-])nn2S(=O)(=O)c1ccc(C)cc1 [Example 41] |  |  |  | 
40% | COc1ccc2c(c1)c(OCC(=O)Nc1ccc(F)cc1F)nn2S(=O)(=O)c1ccc(C)cc1 [Example 66, N-(2,4-Difluorophenyl)-2-[5-methoxy-1-(toluene-4-sulphonyl)-1H-indazol-3-yloxy]acetamide] |  |  |  | 
67% | COc1ccc2c(c1)c(OCC(=O)Nc1ccc(Cl)cc1Cl)nn2S(=O)(=O)c1ccc(C)cc1 [Example 73] |  |  |  | 
90% | COc1ccc2c(c1)c(OCc1c(Cl)cccc1Cl)nn2Cc1cccc([N+](=O)[O-])c1 [Example 84] |  |  |  | 
 | COc1ccc2c(c1)c(OCCOc1ccc([N+](=O)[O-])cc1)nn2Cc1ccc(F)cc1 [Example 91, 1-(4-Fluorobenzyl)-5-methoxy-3-[2-(4-nitrophenoxy)ethoxy]-1H-indazole] | 1.16 ± 0.65 million/animal | 71% |  | 
 | COc1ccc2c(c1)c(OCCOc1c(F)cc(F)cc1Br)nn2CCOc1ccc([N+](=O)[O-])cc1 [Example 99, 3-[2-(2-Bromo-4,6-difluorophenoxy)ethoxy]-5-methoxy-1-[2-(4-nitrophenoxy)ethyl]-1H-indazole] | 1.35 ± 0.67 million/animal | 46% | 1.33 ± 0.23 million/animal | 33%
 | COc1ccc2c(c1)c(OCc1cc(C(C)=O)ccc1OC)nn2CCOc1ccc([N+](=O)[O-])cc1 [Example 107] | 1.44 ± 0.92 million/animal | 68% |  | 
100% | O=C(Nc1ccc2c(c1)c(OCCOc1ccc([N+](=O)[O-])cc1)nn2Cc1ccc(Cl)cc1Cl)Nc1cccc2ccccc12 [Example 114, 1-{1-(2,4-Dichlorobenzyl)-3-[2-(4-nitrophenoxy)ethoxy]-1H-indazol-5-yl}-3-naphthalen-1-ylurea] | 1.19 ± 0.43 million/animal | 58% |  | 
90% | O=C(Nc1ccc2c(c1)c(OCCOc1ccc([N+](=O)[O-])cc1)nn2Cc1ccc(Cl)c(Cl)c1)Nc1cccc2ccccc12 [Example 116] |  |  |  | 
